What was measured:
Type in all cases: in vivo, human
[1] = system: subjects with MDD; test: SIGH-A score (Example 6); conditions: 10 mg; Treatment Week 6; 59 subjects analyzed
Description: v. To investigate the effect of aticaprant on symptoms of anxiety using the HAM-A and on core symptoms of anxiety using the HAM-A6 subscale.
(§1) • (i) Depression: Montgomery-Åsberg Depression Rating Scale (MADRS), Clinical Global Impression-Severity (CGI-S), Symptoms of Major Depressive Disorder Scale (SMDDS), and Self-assessment of treatment experience (SATE) • (ii) Anhedonia: Snaith-Hamilton Pleasure Scale (SHAPS) • (iii) Anxiety: Structured Interview Guide for the Hamilton Anxiety scale (SIGH-A) and HAM-A6 • (iv) Effects on Cognition: The Cognitive and Physical Functioning Questionnaire (CPFQ) • (v) Safety assessments

[2] = system: subjects with MDD; test: SATE score (Example 6); conditions: Treatment Week 6, aticaprant 10 mg
Description: SATE is a one to three questionnaire administered when the subject is unable to complete other evaluations, i.e., away from the clinical setting such as at home. SATE is useful to evaluate improvement or deterioration of depressive symptoms of the subjects over a short period of time. […] See, Table 6.
iv. To investigate the effect of aticaprant on symptoms of depression using the Clinical Global Impression-Severity (CGI-S), the patient reported Symptoms of Major Depressive Disorder Scale (SMDDS) and the self-assessment of treatment experience (SATE).
as §1

[3] = system: subjects with MDD; test: CGI-S total score (Example 6); conditions: 10 mg; 59 subjects analyzed; 'at Treatment' (week not given)
Description: CGI-S is a scale that rates the severity of the subject's illness at the time of assessment, relative to the clinician's past experience with subjects who have the same diagnosis and improvement with treatment. CGI-S provides an overall clinician-determined summary measure of severity of subject's illness that considers all available information, including knowledge of subject's history, psychosocial circumstances, symptoms, behavior, and impact of symptoms on subject's ability to function. CGI-S evaluates severity of psychopathology on scale of 0 to 7. Subject is assessed on severity of mental illness at time of rating according to: 0=not assessed; 1=normal (not at all ill); 2=borderline mentally ill; 3=mildly ill; 4=moderately ill; 5=markedly ill; 6=severely ill; 7=among most extremely ill patients.
iv. To investigate the effect of aticaprant on symptoms of depression using the Clinical Global Impression-Severity (CGI-S), the patient reported Symptoms of Major Depressive Disorder Scale (SMDDS) and the self-assessment of treatment experience (SATE). […]

[4] = system: subjects with MDD; test: Treatment-emergent adverse events, full safety analysis set (Example 6)
[5] = TEAE in >= 5% of subjects, Treatment Period, Full Safety Analysis Set, aticaprant 10 mg (N = 85), Table 40
[6] = TEAE of Special Interest, Treatment Period, Full Safety Analysis Set, aticaprant 10 mg (N = 85), Table 41
[7] = Treatment Period, Full Safety Analysis Set, aticaprant 10 mg (N = 85)

Structure (SMILES): Cc1cc(C)cc(C2CCCN2Cc2ccc(Oc3ccc(C(N)=O)cc3F)cc2)c1 (centres unmarked) [aticaprant, 3-fluoro-4-4-2-(3,5-dimethylphenyl)pyrrolidin-1-yl-methylphenoxybenzamide]
- Change from Treatment Baseline in SIGH-A score, Arithmetic Mean (SD) [1]: −5.85 ± 5.369 scores on a scale
- SATE: Depression Worsened (Much worse) ([2]; n = 0): 0 subjects
- SATE: Depression Worsened (Slightly worse) ([2]; n = 0): 0 subjects
- SATE: Depression Worsened (Very much worse) ([2]; n = 0): 0 subjects
- SATE: Depression Much improved ([2]; n = 21): 6 subjects
- SATE: Depression Slightly improved ([2]; n = 21): 15 subjects
- SATE: Depression Very Much Improved ([2]; n = 21): 0 subjects
- SATE: Overall Depression (Got worse) ([2]; n = 30): 0 subjects
- SATE: Overall Depression (Improved) ([2]; n = 30): 21 subjects
- SATE: Overall Depression (Not changed) ([2]; n = 30): 9 subjects
- Change from Treatment Baseline in CGI-S Total Score, Arithmetic Mean (SD) [3]: −0.92 ± 1.039 Scores on a scale
- Diarrhea, % [4, 5]: 8%
- Gastrointestinal Disorders, % [4, 5]: 14%
- Headache, % [4, 5]: 12%
- Infections And Infestations, % [4, 5]: 15%
- Nasopharyngitis, % [4, 5]: 6%
- Nervous System Disorders, % [4, 5]: 15%
- Pruritus, % [4, 5]: 6%
- Skin And Subcutaneous Tissue Disorders, % [4, 5]: 7%
- Total no. Subjects with Adverse Events, % [4, 5]: 47%
- Abdominal Pain, % [4, 6]: 1.2%
- Diarrhea, % [4, 6]: 8.2%
- Dyspepsia, % [4, 6]: 1.2%
- Gastrointestinal Disorders, % [4, 6]: 10.6%
- Pruritus, % [4, 6]: 5.9%
- Skin And Subcutaneous Tissue Disorders, % [4, 6]: 5.9%
- Total no. Subjects with Adverse Events of Special Interest, % [4, 6]: 15.3%
- Subjects with TEAE leading to discontinuation of agent, % [4, 7]: (1.2) %
- Total subjects affected by non-serious adverse events, % [4, 7]: (27.1%)
- Subjects with 1 or more TEAE, % ([4]; Treatment Period, Full Safety Analysis Set, aticaprant 10 mg (N = 85), Table 39): (47.1) %
- Subjects with drug-related TEAE, % ([4]; Treatment Period, Full Safety Analysis Set, aticaprant 10 mg (N = 85), possible, probable, very likely): (23.5) %
- subjects who discontinued during the treatment period due to TEAEs ([4]; due to diarrhea, nausea, vomiting and headache): 1 subject
- subjects with at least one TEAE during the treatment period ([4]; full safety analysis set, 40/85 subjects): 47.1%
- patients with acute cholecystitis ([4]; treatment period): 0 patients
- subjects with pruritus (TEAE of special interest) ([4]; treatment period, 5/85 subjects): 5.9%
- subjects with diarrhea (TEAE) ([4]; treatment period, 7/85 subjects): 8.2%
- subjects with headache (TEAE) ([4]; treatment period, 10/85 subjects): 11.8%
- subjects with TEAEs of special interest ([4]; treatment period, 13/85 subjects): 15.3%
